# Measurements: patent publication US20200002303A1, “C-GLYCOSIDE COMPOUNDS USEFUL FOR TREATING DISEASE” (Fimbrion Therapeutics, Inc., priority 2016, published 2020)
# Tests used:
# FimHL = target: T1, FimHL (Escherichia coli, UniProt P08191); assay: Differential scanning fluorimetry (DSF) with purified FimHL; assay type: binding; details: FimHL 10 μM with mannoside 100 μM, SYPRO Orange, HEPES pH 7.5; Tm from Boltzmann fit
# T1 construct: Purified FimHL (10 μM) in the absence or presence of mannoside (100 μM)
# Experimental: Purified FimHL (10 μM) in the absence or presence of mannoside (100 μM) was combined with 5×SYPRO Orange in a 50 μl reaction mixture buffered in 20 mM HEPES pH 7.5, 150 mM NaCl (HBS) and 0.4% DMSO. Binding equilibria were established by allowing the reaction mixtures to incubate at 23° C. for 30 min. These reaction mixtures were then placed in 96-well clear-bottom PCR plates and subjected to a melt curve from 20-90° C. in 0.5° C. increments of 15 seconds, each followed by a fluorescence read of the “HEX” channel in a Bio-Rad CFX96 thermocycler (Bio-Rad, Hercules, Calif.). Melt curves were fitted to the Boltzmann equation (y=A2+(A1−A2)/(1+exp((x−xo)/dx)) where xo is the Tm) to determine the melting temperature (Tm) using GraphPad Prism 6 (San Diego Calif.). Melting temperatures are represented as the mean and standard error of two biological replicates, each of which consisted of three technical replicates. Compounds not listed were not tested.
# FimH = target: T2, FimH (Escherichia coli, UniProt Q1R2J4); assay type: cell-based; details: concentration reducing bacterial agglutination of guinea pig red blood cells by greater than 90%; UTI89 bacteria
# T2 construct: performed with UTI89 bacteria and guinea pig red blood cells; endogenous in cells; host or cells: UTI89 bacteria (whole cells, type 1 piliated)
# Experimental: The hemagglutination inhibition (HAI) assay was performed with UTI89 bacteria and guinea pig red blood cells, as previously described (S. J. Hultgren, W. R. Schwan, A. J. Schaeffer, J. L. Duncan Infect. Immun. 1986, 54, 613-620).
# UTI89 bacteria = assay: Biofilm inhibition assay with UTI89 bacteria; assay type: cell-based; details: read-out: Biofilm prevention IC50
# Experimental: The biofilm inhibition assay was performed with UTI89 bacteria as previously described (L. Cegelski, J. S. Pinkner, N. D. Hammer, C. K. Cusumano, C. S. Hung, E. Chorell, V. Aberg, J. N. Walker, P. C. Seed, F. Almqvist, M. R. Chapman, S. J. Hultgren Nature Chem. Biol. 2009, 5, 913-919). Compounds not listed were not tested.
smiles,measurement,setting,value
"Cc1cc(-c2cccc3cnccc23)ccc1[C@@H](O)[C@H]1O[C@H](CO)[C@@H](O)[C@H](O)[C@@H]1O [Example 1, (2R,3S,4S,5S,6R)-2-((R)-hydroxy(4-(isoquinolin-5-yl)-2-methylphenyl)methyl)-6-(hydroxymethyl)tetrahydro-2H-pyran-3,4,5-triol]",DSF Melting Temp,FimHL,74.6 °C
same,HAI titer EC>90,FimH,0.125 µM
same,IC50,UTI89 bacteria,600 nM
"Cc1cc(-c2ccc3cc[nH]c(=O)c3c2)ccc1[C@@H](O)[C@H]1O[C@H](CO)[C@@H](O)[C@H](O)[C@@H]1O [Example 2, 7-(4-((R)-hydroxy((2R,3S,4S,5S,6R)-3,4,5-trihydroxy-6-(hydroxymethyl)tetrahydro-2H-pyran-2-yl)methyl)-3-methylphenyl)isoquinolin-1 (2H)-one]",DSF Melting Temp,FimHL,77.5 °C
same,HAI titer EC>90,FimH,0.006 µM
same,IC50,UTI89 bacteria,30 nM
"Cc1cc(-c2ccc3ccn(C(C)C)c(=O)c3c2)ccc1[C@@H](O)[C@H]1O[C@H](CO)[C@@H](O)[C@H](O)[C@@H]1O [Example 31, 7-(4-((R)-Hydroxy ((2R,3S,4S,5S,6R)-3,4,5-trihydroxy-6-(hydroxymethyl)-tetrahydro-2H-pyran-2-yl)methyl)-3-methylphenyl)-2-isopropylisoquinolin-1 (2H)-one]",HAI titer EC>90,FimH,0.006 µM
"Cc1cc(-c2ccc3c(c2)C(=O)N(C(C)C)CC3)ccc1[C@@H](O)[C@H]1O[C@H](CO)[C@@H](O)[C@H](O)[C@@H]1O [Example 32, 7-(4-((R)-Hydroxy ((2R,3S,4S,5S,6R)-3,4,5-trihydroxy-6-(hydroxymethyl)-tetrahydro-2H-pyran-2-yl)methyl)-3-methylphenyl)-2-isopropyl-3,4-dihydroisoquinolin-1 (2H)-one]",HAI titer EC>90,FimH,0.006 µM
"O=C1NCCc2ccc(-c3ccc([C@@H](O)[C@H]4O[C@H](CO)[C@@H](O)[C@H](O)[C@@H]4O)c(C(F)(F)F)c3)cc21 [Example 33, 7-(4-((R)-Hydroxy ((2R,3S,4S,5S,6R)-3,4,5-trihydroxy-6-(hydroxymethyl)-tetrahydro-2H-pyran-2-yl)methyl)-3-(trifluoromethyl)phenyl)-3,4-dihydroisoquinolin-1 (2H)-one]",HAI titer EC>90,FimH,0.006 µM
"O=C1NCCc2ccc(-c3ccc([C@H](O)[C@H]4O[C@H](CO)[C@@H](O)[C@H](O)[C@@H]4O)c(C(F)(F)F)c3)cc21 [Example 34, 7-(4-((S)-hydroxy ((2R,3S,4S,5S,6R)-3,4,5-trihydroxy-6-(hydroxymethyl)tetrahydro-2H-pyran-2-yl)methyl)-3-(trifluoromethyl)phenyl)-3,4-dihydroisoquinolin-1 (2H)-one]",HAI titer EC>90,FimH,3 µM
"CNC(=O)c1cncc(-c2ccc([C@@H](O)[C@H]3O[C@H](CO)[C@@H](O)[C@H](O)[C@@H]3O)c(C)c2)c1 [Example 35, 5-(4-((R)-Hydroxy ((2R,3S,4S,5S,6R)-3,4,5-trihydroxy-6-(hydroxymethyl)-tetrahydro-2H-pyran-2-yl)methyl)-3-methylphenyl)-N-methylnicotinamide]",HAI titer EC>90,FimH,0.01 µM
"Cc1cc(-c2cn3ccccc3n2)ccc1[C@@H](O)[C@H]1O[C@H](CO)[C@@H](O)[C@H](O)[C@@H]1O [Example 36, (2R,3S,4S,5S,6R)-2-((R)-Hydroxy (4-(imidazo[1,2-a]pyridin-2-yl)-2-methylphenyl)methyl)-6-(hydroxymethyl)-tetrahydro-2H-pyran-3,4,5-triol]",HAI titer EC>90,FimH,0.019 µM
"Cc1cc(-c2cccc(C(=O)Nc3ccccn3)c2)ccc1[C@@H](O)[C@H]1O[C@H](CO)[C@@H](O)[C@H](O)[C@@H]1O [Example 37, 4′-((R)-Hydroxy ((2R,3S,4S,5S,6R)-3,4,5-trihydroxy-6-(hydroxymethyl)-tetrahydro-2H-pyran-2-yl)methyl)-5′-methyl-N-(pyridin-2-yl)biphenyl-3-carboxamide]",HAI titer EC>90,FimH,0.012 µM
"CNC(=O)c1cc(C(=O)NC)cc(-c2ccc([C@@H](O)[C@H]3O[C@H](CO)[C@@H](O)[C@H](O)[C@@H]3O)c(C)c2)c1 [Example 38, 4′-((R)-Hydroxy ((2R,3S,4S,5S,6R)-3,4,5-trihydroxy-6-(hydroxymethyl)-tetrahydro-2H-pyran-2-yl)methyl)-N^3,N^5,3′-trimethylbiphenyl-3,5-dicarboxamide]",HAI titer EC>90,FimH,0.007 µM
"CNC(=O)c1cccc(-c2ccc([C@@H](O)[C@H]3O[C@H](CO)[C@@H](O)[C@H](O)[C@@H]3O)c(C(F)(F)F)c2)c1 [Example 39, 4′-((R)-Hydroxy ((2R,3S,4S,5S,6R)-3,4,5-trihydroxy-6-(hydroxymethyl)-tetrahydro-2H-pyran-2-yl)methyl)-N-methyl-5′-(trifluoromethyl)biphenyl-3-carboxamide]",HAI titer EC>90,FimH,0.015 µM
"Cc1cc(-c2cccc(C(=O)N(C)C)c2)ccc1[C@@H](O)[C@H]1O[C@H](CO)[C@@H](O)[C@H](O)[C@@H]1O [Example 41, 4′-((R)-Hydroxy ((2R,3S,4S,5S,6R)-3,4,5-trihydroxy-6-(hydroxymethyl)-tetrahydro-2H-pyran-2-yl)methyl)-N,N,5′-trimethylbiphenyl-3-carboxamide]",HAI titer EC>90,FimH,0.057 µM
"CNC(=O)c1cc(C#N)cc(-c2ccc([C@@H](O)[C@H]3O[C@H](CO)[C@@H](O)[C@H](O)[C@@H]3O)c(C)c2)c1 [Example 42, 5-Cyano-4′-((R)-hydroxy ((2R,3S,4S,5S,6R)-3,4,5-trihydroxy-6-(hydroxymethyl)-tetrahydro-2H-pyran-2-yl)methyl)-N,5′-dimethylbiphenyl-3-carboxamide]",HAI titer EC>90,FimH,0.006 µM
"CNC(=O)c1cc(-c2ccc([C@@H](O)[C@H]3O[C@H](CO)[C@@H](O)[C@H](O)[C@@H]3O)c(C)c2)ccc1C#N [Example 43, 4-Cyano-4′-((R)-hydroxy ((2R,3S,4S,5S,6R)-3,4,5-trihydroxy-6-(hydroxymethyl)-tetrahydro-2H-pyran-2-yl)methyl)-N,5′-dimethylbiphenyl-3-carboxamide]",HAI titer EC>90,FimH,0.006 µM
"CNC(=O)c1cccc(-c2ccc([C@@H](N=[N+]=[N-])[C@H]3O[C@H](CO)[C@@H](O)[C@H](O)[C@@H]3O)c(C)c2)c1 [Example 44, 4′-((R)-azido((2R,3S,4R,5S,6R)-3,4,5-trihydroxy-6-(hydroxymethyl)tetrahydro-2H-pyran-2-yl)methyl)-N,3′-dimethylbiphenyl-3-carboxamide]",HAI titer EC>90,FimH,0.062 µM
"CNC(=O)c1cccc(-c2ccc([C@@H](O)[C@H]3O[C@H](CO)[C@@H](O)[C@H](O)[C@@H]3O)c(Cl)c2)c1 [Example 45, 3′-chloro-4′-((R)-hydroxy((2R,3S,4S,5S,6R)-3,4,5-trihydroxy-6-(hydroxymethyl)tetrahydro-2H-pyran-2-yl)methyl)-N-methylbiphenyl-3-carboxamide]",HAI titer EC>90,FimH,0.047 µM
"Cc1cc(-c2ccc(C#N)cc2)ccc1[C@@H](O)[C@H]1O[C@H](CO)[C@@H](O)[C@H](O)[C@@H]1O [Example 46, 4′-((R)-hydroxy((2R,3S,4S,5S,6R)-3,4,5-trihydroxy-6-(hydroxymethyl)tetrahydro-2H-pyran-2-yl)methyl)-3′-methylbiphenyl-4-carbonitrile]",HAI titer EC>90,FimH,0.053 µM
"Cc1cc(N=[N+]=[N-])ccc1[C@@H](O)[C@H]1O[C@H](CO)[C@@H](O)[C@H](O)[C@@H]1O [Example 47, (2R,3S,4S,5S,6R)-2-((R)-(4-azido-2-methylphenyl)(hydroxy)methyl)-6-(hydroxymethyl)tetrahydro-2H-pyran-3,4,5-triol]",HAI titer EC>90,FimH,0.25 µM
"Cc1cc(-n2cc(-c3ccccc3)nn2)ccc1[C@@H](O)[C@H]1O[C@H](CO)[C@@H](O)[C@H](O)[C@@H]1O [Example 48, (2R,3S,4S,5S,6R)-2-((R)-hydroxy(2-methyl-4-(4-phenyl-1H-1,2,3-triazol-1-yl)phenyl)methyl)-6-(hydroxymethyl)tetrahydro-2H-pyran-3,4,5-triol]",HAI titer EC>90,FimH,0.016 µM
"Cc1cc(-n2cc(-c3cccnc3)nn2)ccc1[C@@H](O)[C@H]1O[C@H](CO)[C@@H](O)[C@H](O)[C@@H]1O [Example 49, (2R,3S,4S,5S,6R)-2-((R)-hydroxy(2-methyl-4-(4-(pyridin-3-yl)-1H-1,2,3-triazol-1-yl)-phenyl)methyl)-6-(hydroxymethyl)tetrahydro-2H-pyran-3,4,5-triol]",HAI titer EC>90,FimH,0.015 µM
"Cc1cc(-c2cccc(C#N)c2)ccc1[C@@H](O)[C@H]1O[C@H](CO)[C@@H](O)[C@H](O)[C@@H]1O [Example 51, 4′-((R)-hydroxy((2R,3S,4S,5S,6R)-3,4,5-trihydroxy-6-(hydroxymethyl)tetrahydro-2H-pyran-2-yl)methyl)-3′-methylbiphenyl-3-carbonitrile]",HAI titer EC>90,FimH,0.026 µM
